The target of assay [1] is T1, rat μ (C6-MOR) opioid receptor (Rattus norvegicus, UniProt P33535).
T1 construct: expressed in transfected cells
Nature of the assay: Stimulation of [35S]GTPγS binding, MOR. Type of assay: biochemical. How it is done:
(§1) In Vitro Pharmacology-Cell Lines and Membrane Preparations. All tissue culture reagents were purchased from Gibco Life Sciences (Grand Island, N.Y., U.S.). C6-rat glioma cells stably transfected with a rat μ (C6-MOR) or rat δ (C6-DOR) opioid receptor20 and Chinese hamster ovary (CHO) cells stably expressing a human K (CHO-KOR) opioid receptor21 were used for all in vitro assays. Cells were grown to confluence at 37° C. in 5% CO2 in Dulbecco's modified Eagle medium containing 10% fetal bovine serum and 5% penicillin/streptomycin. Membranes were prepared by washing confluent cells three times with ice cold phosphate buffered saline (0.9% NaCl, 0.61 mM Na2HPO4, 0.38 mM KH2PO4, pH 7.4). Cells were detached from the plates by incubation in warm harvesting buffer (20 mM HEPES, 150 mM NaCl, 0.68 mM EDTA, pH 7.4) and pelleted by centrifugation at 200 g for 3 min. The cell pellet was suspended in ice-cold 50 mM Tris-HCl buffer, pH 7.4, and homogenized with a Tissue Tearor (Biospec Products, Inc., Bartlesville, Okla., U.S.) for 20 s at setting 4. The homogenate was centrifuged at 20 000 g for 20 min at 4° C., and the pellet was rehomogenized in 50 mM Tris-HCl with a Tissue Tearor for 10 s at setting 2, followed by recentrifugation. The final pellet was resuspended in 50 mM Tris-HCl and frozen in aliquots at […]. Protein concentration was determined via Bradford assay using bovine serum albumin as the standard.
(§2) Stimulation of [^35S]GTPyS Binding. Agonist stimulation of [35S]guanosine 5′-O-[γ-thio]triphosphate ([^35S]GTPγS, 1250 Ci, 46.2 TBq/mmol) binding was measured as described previously Briefly, membranes (10-20 μg of protein/tube) were incubated 1 h at room temperature in GTPyS buffer (50 mM Tris-HCl, 100 mM NaCl, 5 mM MgCl2, pH 7.4) containing 0.1 nM [^35S]GTPγS, 30 μM guanosine diphosphate (GDP), and varying concentrations of test peptides. Peptide stimulation of [^35S]GTPyS was compared with 10 μM standard compounds [D-Ala^2,N-MePhe^4,Gly-ol]encephalin (DAMGO) at MOR, D-Pen^2,5-enkephalin (DPDPE) at DOR, or […] at KOR. The reaction was terminated by rapidly filtering through GF/C filters and washing 10 times with GTPyS buffer, and retained radioactivity was measured as described above. The results presented are the mean±standard error from at least three separate assays performed in duplicate; maximal stimulation was determined using nonlinear regression analysis with GraphPad Prism (GraphPad Software Inc., La Jolla, Calif.).

Assay [2] concerns the target T2, rat δ (C6-DOR) opioid receptor (Rattus norvegicus, UniProt P33533).
T2 construct: expressed in transfected cells
Nature of the assay: Radioligand binding assay, [3H]diprenorphine displacement, DOR. The note with it: displacement of 0.2 nM [3H]diprenorphine, C6-DOR membranes; mean ± standard error. How it is done: as §1
(§3) Radioligand Binding Assays. Radioactive compounds were purchased from Perkin-Elmer (Waltham, Mass., U.S.). Opioid ligand binding assays were performed using competitive displacement of 0.2 nM [3H]diprenorphine (250 μCi, 1.85 TBq/mmol) by the test compound from membrane preparations containing opioid receptors. The assay mixture, containing membrane suspension (20 μg protein/tube) in 50 mM Tris-HCl buffer (pH 7.4), [3H]diprenorphine, and various concentrations of test peptide, was incubated at room temperature for 1 h to allow binding to reach equilibrium. The samples were rapidly filtered through Whatman GF/C filters using a Brandel harvester (Brandel, Gaithersburg, Md., U.S.) and washed three times with 50 mM Tris-HCl buffer. The radioactivity retained on dried filters was determined by liquid scintillation counting after saturation with EcoLume liquid scintillation cocktail in a Wallac 1450 MicroBeta (Perkin-Elmer, Waltham, Mass., U.S.). Nonspecific binding was determined using 10 μM naloxone. Inhibitory constant (Ki) values were calculated using nonlinear regression analysis to fit a logistic equation to the competition data using GraphPad Prism, version 5.01, for Windows (GraphPad Software Inc., La Jolla, Calif.). The results presented are the mean±standard error from at least three separate assays performed in duplicate.

Assay [3] deals with T1, rat μ (C6-MOR) opioid receptor. Nature of the assay: Radioligand binding assay, [3H]diprenorphine displacement, MOR. The following applies: displacement of 0.2 nM [3H]diprenorphine, C6-MOR membranes; mean ± standard error. How it is done: as §1, §3
For assay [4], the target named is T2, rat δ (C6-DOR) opioid receptor. Nature of the assay: Stimulation of [35S]GTPγS binding, DOR. Type of assay: biochemical. The following applies: for Emax / % stimulation DOR: [35S]GTPγS maximal stimulation compared with 10 μM standard DPDPE. How it is done: as §1, §2
[5] abbreviates: [35S]GTPγS maximal stimulation compared with 10 μM standard DAMGO.
Where [6] appears, read: [35S]GTPγS binding, C6-MOR membranes, mean ± standard error.
Setting [7] is: [35S]GTPγS binding, C6-DOR membranes, mean ± standard error.

T1 sequence (P33535 whole entry): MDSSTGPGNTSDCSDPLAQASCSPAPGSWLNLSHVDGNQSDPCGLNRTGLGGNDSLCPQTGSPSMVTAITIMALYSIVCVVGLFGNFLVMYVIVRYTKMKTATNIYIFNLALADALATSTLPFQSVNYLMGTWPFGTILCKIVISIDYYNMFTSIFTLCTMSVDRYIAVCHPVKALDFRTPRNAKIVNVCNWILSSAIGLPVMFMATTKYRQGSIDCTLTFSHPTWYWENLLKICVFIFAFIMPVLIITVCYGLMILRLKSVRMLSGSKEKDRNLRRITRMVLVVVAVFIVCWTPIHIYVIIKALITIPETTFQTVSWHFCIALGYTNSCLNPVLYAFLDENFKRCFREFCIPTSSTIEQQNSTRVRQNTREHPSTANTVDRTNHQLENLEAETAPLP
T2 sequence (P33533 whole entry): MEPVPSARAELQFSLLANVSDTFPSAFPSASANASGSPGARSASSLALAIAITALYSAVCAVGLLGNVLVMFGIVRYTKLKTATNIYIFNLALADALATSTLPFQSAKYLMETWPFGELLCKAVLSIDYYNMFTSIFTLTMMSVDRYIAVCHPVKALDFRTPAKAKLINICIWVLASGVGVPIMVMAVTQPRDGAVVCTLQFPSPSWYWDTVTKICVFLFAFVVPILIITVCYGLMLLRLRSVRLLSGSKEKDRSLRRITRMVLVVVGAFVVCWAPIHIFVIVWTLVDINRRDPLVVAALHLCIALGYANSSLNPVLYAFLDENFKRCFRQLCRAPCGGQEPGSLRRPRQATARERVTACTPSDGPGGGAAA

As for `N[C@@H](Cc1ccc(Cl)cc1Cl)C(=O)N[C@@H]1CCNc2ccc(Cc3ccccc3)cc21` [Compound 1028], the Emax in assay [1] (setting [5]) came to 13.8 ± 1.27%; in assay [4], 0%. The Ki in assay [2] amounted to 2090 nM; in assay [3], 50.6 ± 10.6 nM.
Turning to `COc1ccccc1Oc1ccc2c(c1)[C@H](NC(=O)[C@@H](N)Cc1c(C)cc(O)cc1C)CCN2` [Compound 1029], the EC50 in assay [1] (setting [6]) was 46.7 ± 4.12 nM. The figures for the Emax in assay [1] (setting [5]) and in assay [4] were 35.7 ± 2.58% and 0%, respectively. For the same compound, the Ki in assay [2] was found to be 9.97 ± 0.71 nM; in assay [3] it was 0.36 ± 0.04 nM.
In assay [1] (setting [6]), `Cc1cc(O)cc(C)c1C[C@H](N)C(=O)N[C@@H]1CCNc2ccc(Oc3cccc(Cl)c3)cc21` [Compound 1030] returned a half-maximal effective concentration (EC50) of 10.1 ± 3.25 nM. The Emax in assay [1] (setting [5]) was 27.2 ± 2.11%. The inhibition constant Ki in assay [2] came to 2.59 nM; in assay [3], 0.08 ± 0.01 nM.
The compound `COc1ccccc1Oc1ccc2c(c1)[C@H](NC(=O)[C@@H](N)Cc1c(C)cc(O)cc1C)CCN2C(C)=O` [Compound 1031] had an EC50 in assay [1] (setting [6]) of 39.7 ± 17 nM. In assay [1] (setting [5]), the maximal effect (Emax) worked out at 30.5 ± 1.74%. Further, the Ki is 2.7 nM in assay [2] and 0.27 ± 0.05 nM in assay [3].
As for `CCC(=O)N1CC[C@@H](NC(=O)[C@@H](N)Cc2c(C)cc(O)cc2C)c2cc(CC3Cc4ccccc4C3)ccc21` [Compound 1033], the EC50 in assay [1] (setting [6]) came to 3.61 ± 2.02 nM. Also, in assay [1] (setting [5]), the Emax stood at 52 ± 7.7%. For the same compound, the Ki in assay [2] worked out at 0.3 ± 0.11 nM; in assay [3], 0.06 ± 0.01 nM. In assay [4] (setting [7]), the “EC50 (nm) DOR” value is “dns”. For the same compound, the “% stimulation DOR” value in assay [4] was “dns”.
In assay [1] (setting [6]), `COc1cccc2c1CC(Cc1ccc3c(c1)[C@H](NC(=O)[C@@H](N)Cc1c(C)cc(O)cc1C)CCN3)C2` (stereo partly drawn) [Compound 1035, (2S)-2-amino-3-(4-hydroxy-2,6-dimethylphenyl)-N-((4R)-6-((4-methoxy-2,3-dihydro-1H-inden-2-yl)methyl)-1,2,3,4-tetrahydroquinolin-4-yl)propanamide] came in with a half-maximal effective concentration (EC50) of 1.44 nM. The compound further came in with an Emax in assay [1] (setting [5]) of 32.9%. In addition, the figures for the Ki in assay [2] and in assay [3] were 4.13 ± 2.27 nM and 0.09 nM, respectively. Also, the “EC50 (nm) DOR” value in assay [4] (setting [7]) was “dns”. Moreover, the “% stimulation DOR” value in assay [4] is “dns”.
The compound `COc1ccc2c(c1)CC(Cc1ccc3c(c1)[C@H](NC(=O)[C@@H](N)Cc1c(C)cc(O)cc1C)CCN3)C2` (stereo partly drawn) [Compound 1037] displayed an EC50 in assay [1] (setting [6]) of 354 nM. For the same compound, the maximal effect (Emax) in assay [1] (setting [5]) came out at 10.9%. Besides, the inhibition constant Ki in assay [2] was 6.15 ± 2.09 nM; in assay [3], 0.26 ± 0.15 nM. The “EC50 (nm) DOR” value in assay [4] (setting [7]) is reported as “dns”. Also, in assay [4], the “% stimulation DOR” value is reported as “dns”.
`CC(=O)N1CC[C@@H](NC(=O)[C@@H](N)Cc2c(C)cc(O)cc2C)c2cccc(Cc3ccccc3)c21` [Compound 1040] displayed an EC50 in assay [1] (setting [6]) of 19 nM. Moreover, the Emax in assay [1] (setting [5]) came to 8.03%. Also, the Ki in assay [2] is 6.19 nM; in assay [3], 92.4 nM.
Regarding `N[C@@H](Cc1c(Cl)cc(O)cc1Cl)C(=O)N[C@@H]1CCCc2ccc(Oc3ccccc3)cc21` [Compound 1119], the EC50 in assay [1] (setting [6]) worked out at 118 ± 76 nM. In addition, the Emax in assay [1] (setting [5]) worked out at 20.7 ± 2.91%. The Ki in assay [2] was found to be 105 ± 10.5 nM; in assay [3] it was 1.53 ± 0.64 nM. Besides, the “EC50 (nm) DOR” value in assay [4] (setting [7]) is recorded as “dns”. Moreover, in assay [4], the “% stimulation DOR” value was “dns”.
`Cc1cc(O)cc(C)c1C[C@H](N)C(=O)N[C@@H]1CC[C@H](C)c2ccc(Cc3ccccc3)cc21` [Compound 1120] showed an EC50 in assay [1] (setting [6]) of 16 ± 1.94 nM. In addition, the Emax in assay [1] (setting [5]) amounted to 72.3 ± 3.67%. Further, the results for the inhibition constant Ki in assay [2] and in assay [3] were 5.85 ± 0.58 nM and 0.08 ± 0.02 nM, respectively. For the same compound, the “EC50 (nm) DOR” value in assay [4] (setting [7]) is on record as “dns”. In addition, in assay [4], the “% stimulation DOR” value was “dns”.
For `Cc1cc(O)cc(C)c1C[C@H](N)C(=O)N[C@@H]1CC[C@@H](C)c2ccc(Cc3ccccc3)cc21` [Compound 1121], the “EC50 (nm) MOR” value in assay [1] (setting [6]) is listed as “dns”. Besides, the “% stimulation MOR” value in assay [1] (setting [5]) is reported as “dns”. Besides, the inhibition constant Ki turned out to be 15.8 ± 4.72 nM in assay [2] and 0.32 ± 0.1 nM in assay [3]. The response in assay [4] (setting [7]) was half-maximal at 109 ± 80.7 nM (EC50). In assay [4], this compound gave an Emax of 14.3 ± 4.34%.

The values above are taken from patent publication US10519114B2, “Peptidomimetics and methods of using the same” (The Regents of the University of Michigan, priority 2016, dated 2019).
